Source: patent US20180214400A1, “THE USE OF KAURANES COMPOUNDS IN THE MANUFACTURE OF MEDICAMENT FOR TREATMENT OF CADIAC HYPERTROPY AND PULMONARY HYPERTENSION” (KEY-PHARMA BIOMEDICAL INC., priority 2015, published 2018)

Legend:
[1] = large amount, certain condition in vitro; cited from earlier work
[2] = test system: acute ischemia-reperfusion heart injuries; conditions: cited from earlier work
[3] = test system: Diabetic cardiomyopathy (DCM) rats; test: Streptozotocin-induced diabetic cardiomyopathy; format: in vivo, Wistar rats; conditions: STZ diabetes, 12-16 weeks; for cardiac function comparing to group B: pressure-volume system
Procedure: Diabetic cardiomyopathy (DCM) Diabetic induced injury to the myocardium. DCM, induced by streptozotocin (STZ), along with the associated changes occurring in inflammation, oxidative stress and fibrosis markers. Wistar rats were randomly divided into four groups: group A (Normal control), group B (Diabetes), group […] group D (DM/TMZ, trimetazidine treatment). After 12-16 weeks, left ventricular function was measured by the pressure-volume system. Cardiac tissues were prepared for histological study by hematoxlyin and eosin, Sirius red staining as well as for assays of oxidative stress. Oxidative stress, inflammation, and fibrosis markers were evaluated by molecular biological techniques. All data were measured morphometrically and statistically analyzed.

cGMP = cGMP ELISA in neonatal rat fibroblasts; format: cell-based; conditions: 3 h
Procedure: Neonatal rat cardiac fibroblasts were isolated from 1-2-day-old Sprague-Dawley rats as described previously. Briefly, hearts from newborn 1-2-day-old Sprague-Dawley rats were minced on ice, and cells were isolated by trypsin incubation at 37° C. Non-cardiomyocytes were separated from the cardiomyocytes by differential pre-plating, and then cardiomyocytes were removed with fibroblasts seeded in culture dishes. The cells were passaged after 3 days, using a 0.05% trypsin solution. Cells were cultured in DEME/F12 medium with 5% fetal calf serum, and maintained at 37° C., 5% CO2 condition. cGMP levels in the neonatal rat fibroblasts after treated with vehicle or compound A or sildenafil were measured with an ELISA kit following the manufacture's instruction. Quiescent cells were cultured with different doses of compound A ([…]) or sildenafil ([…]) for 3 h. After treatment, the cells were lysed with 0.1N HCl, and performed cGMP ELISA assay.

[4] = Solubility of compound A sodium; format: physicochemical
Description: Only organic solvent which are already approved by FDA for i.v. administration were used for increasing solubility of compound A. After extensive screening of several solvents, the invention disclosed an optimized solvent system for compound A, which composed of saline at pH 10.0, 25% of ethanol and 20% of propylene glycol (2%, w/w) (compound A sodium).

solubility of sodium salt relative to compound A [4]	Structure (SMILES)	mutagenicity [1]	cardioprotective effect and arrhythmia [2]	blood glucose level and insulin levels comparing to Diabetes group [3]	cardiac hypertrophy [3]	cardiac function comparing to group B [3]	Stimulated production of cGMP (cGMP; 1 um)	Stimulated production of cGMP (cGMP; 10 um)
–	C=C1C[C@@]23CC[C@H]4[C@@](C)(CCC[C@@]4(C)C(=O)O)[C@@H]2CC[C@]1(O)C3 (single isomer, unassigned; ent-13) [Compound B, ent-13-hydroxykaur-16-en-18-oic acid]	may be mutagenic	cardioprotective effect	–	–	–	–	–
–	COc1ccc(CN2CCNCC2)c(OC)c1OC [TMZ, trimetazidine, reference compound]	–	–	no significant changes	significant inhibited	significantly improved	–	–
better solubility	CC12CCC3C(CCC4C(C)(C(=O)[O-])CCCC34C)(CC1=O)C2.[Na+] (stereo not shown) [Compound A-1Na]	–	–	no significant changes	–	significantly improved	157 ± 43%	207 ± 54%
